The text below walks through data of article PMC3247980 (The Journal of Biological Chemistry, 2011).

For one assay, the target named is T1, PfFT2 (Plasmodium falciparum, UniProt Q8IIK1).
T1 sequence (Q8IIK1 1-455): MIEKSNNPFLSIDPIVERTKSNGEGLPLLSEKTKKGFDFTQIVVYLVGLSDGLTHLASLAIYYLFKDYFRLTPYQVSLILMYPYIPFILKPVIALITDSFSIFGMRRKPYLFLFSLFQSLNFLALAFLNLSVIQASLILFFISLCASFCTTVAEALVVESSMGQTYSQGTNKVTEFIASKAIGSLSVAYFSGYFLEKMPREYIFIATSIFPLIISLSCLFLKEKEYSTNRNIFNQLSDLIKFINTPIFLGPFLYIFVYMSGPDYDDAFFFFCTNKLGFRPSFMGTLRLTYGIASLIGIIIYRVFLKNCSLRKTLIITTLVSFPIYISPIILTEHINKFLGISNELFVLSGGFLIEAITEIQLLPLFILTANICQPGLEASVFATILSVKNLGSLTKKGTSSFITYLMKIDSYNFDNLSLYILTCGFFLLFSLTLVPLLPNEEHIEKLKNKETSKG
In words: [3H]folinic acid uptake, Xenopus oocytes. The class given is cell-based. The conditions noted are these: labelled compound, 40 min, pH 7.4, room temperature.

For a further assay, the target named is T2, PfFT1 (Plasmodium falciparum, UniProt Q8IBB7).
T2 sequence (Q8IBB7 1-505): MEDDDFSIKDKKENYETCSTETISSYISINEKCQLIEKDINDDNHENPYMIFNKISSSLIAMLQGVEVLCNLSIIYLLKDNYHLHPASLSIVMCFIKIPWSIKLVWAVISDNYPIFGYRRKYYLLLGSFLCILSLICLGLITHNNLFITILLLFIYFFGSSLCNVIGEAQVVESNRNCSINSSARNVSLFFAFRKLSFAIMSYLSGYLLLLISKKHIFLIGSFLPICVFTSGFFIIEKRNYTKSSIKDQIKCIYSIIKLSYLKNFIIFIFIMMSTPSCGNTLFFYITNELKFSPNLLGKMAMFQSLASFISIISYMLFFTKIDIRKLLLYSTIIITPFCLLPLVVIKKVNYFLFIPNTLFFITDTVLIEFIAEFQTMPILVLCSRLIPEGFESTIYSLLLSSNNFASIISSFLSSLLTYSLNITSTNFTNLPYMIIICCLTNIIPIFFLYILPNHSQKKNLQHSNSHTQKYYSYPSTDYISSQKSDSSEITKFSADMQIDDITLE
The experiment in a line: [3H]folinic acid uptake, Xenopus oocytes. The class given is cell-based. The conditions noted are these: labelled compound, 40 min, pH 7.4, room temperature.

Consider `Nc1nc(=O)c2c([nH]1)NCC(CNc1ccc(C(=O)N[C@@H](CCC(=O)O)C(=O)O)cc1)N2C=O` (mixture of isomers) [folinic acid], for which the “[3H]folinic acid uptake, Xenopus oocytes” value on PfFT2 is “cRNA from PfFT1 and PfFT2 showed significantly higher uptake of [^3H]folinic acid”; on PfFT1, “cRNA from PfFT1 and PfFT2 showed significantly higher uptake of [^3H]folinic acid”.
